Source: PubChem BioAssay (NCI)
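Results reflect a 48-hour exposure of cells in 96-well plates to compound at five concentrations. TGI: concentration producing complete growth inhibition.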

Experiments:
Assay in all cases: NCI-60 cell line screen, 48 h
[1] = test system: PC-3 prostate
[2] = test system: UACC-257 melanoma
[3] = test system: MDA-N
[4] = test system: HS 578T breast
[5] = test system: RPMI-8226 leukemia
[6] = test system: A549 NSCLC
[7] = test system: NCI/ADR-RES ovarian
[8] = test system: SK-OV-3 ovarian
[9] = test system: NCI-H23 lung
[10] = test system: OVCAR-4 ovarian
[11] = test system: MDA-MB-231 breast
[12] = test system: 786-0 renal
[13] = test system: CCRF-CEM leukemia
[14] = test system: SF-295 CNS
[15] = test system: SK-MEL-5 melanoma
[16] = test system: RXF 393 renal
[17] = test system: UACC-62 melanoma
[18] = test system: NCI-H226 lung
[19] = test system: NCI-H522 lung
[20] = test system: HCC-2998 colon
[21] = test system: A498 renal
[22] = test system: HCT-116 colon
[23] = test system: MDA-MB-435
[24] = test system: COLO 205 colon
[25] = test system: SNB-75 CNS
[26] = test system: TK-10 renal
[27] = test system: SK-MEL-2 melanoma
[28] = test system: U251 CNS
[29] = test system: BT-549 breast
[30] = test system: KM12 colon
[31] = test system: SN12C renal
[32] = test system: IGROV1 ovarian
[33] = test system: OVCAR-3 ovarian
[34] = test system: SF-268 CNS
[35] = test system: CAKI-1 renal
[36] = test system: T-47D breast
[37] = test system: DU-145 prostate
[38] = test system: OVCAR-8 ovarian
[39] = test system: LOX IMVI melanoma
[40] = test system: HOP-62 NSCLC
[41] = test system: MCF7 breast
[42] = test system: ACHN renal
[43] = test system: MALME-3M melanoma
[44] = test system: K-562 leukemia
[45] = test system: OVCAR-5 ovarian
[46] = test system: SW-620 colon
[47] = test system: MOLT-4 leukemia
[48] = test system: SNB-19 CNS
[49] = test system: HT29 colon
[50] = test system: HCT-15 colon
[51] = test system: EKVX NSCLC
[52] = test system: SK-MEL-28 melanoma
[53] = test system: M14 melanoma
[54] = test system: SR leukemia
[55] = test system: UO-31 renal
[56] = test system: SF-539 CNS
[57] = test system: NCI-H460 lung
[58] = test system: HL-60(TB) leukemia

Structure (SMILES): [O-][N+](CCO)(CCO)c1ncnc2nc[nH]c12
- TGI [1]: > 100 µM
- TGI [2]: > 100 µM
- TGI [3]: > 100 µM
- TGI [4]: > 100 µM
- TGI [5]: > 100 µM
- TGI [6]: > 100 µM
- TGI [7]: > 100 µM
- TGI [8]: > 100 µM
- TGI [9]: > 100 µM
- TGI [10]: > 100 µM
- TGI [11]: > 100 µM
- TGI [12]: > 100 µM
- TGI [13]: > 100 µM
- TGI [14]: > 100 µM
- TGI [15]: > 100 µM
- TGI [16]: > 100 µM
- TGI [17]: > 100 µM
- TGI [18]: > 100 µM
- TGI [19]: > 100 µM
- TGI [20]: > 100 µM
- TGI [21]: > 100 µM
- TGI [22]: > 100 µM
- TGI [23]: > 100 µM
- TGI [24]: > 100 µM
- TGI [25]: > 100 µM
- TGI [26]: > 100 µM
- TGI [27]: > 100 µM
- TGI [28]: > 100 µM
- TGI [29]: > 100 µM
- TGI [30]: > 100 µM
- TGI [31]: > 100 µM
- TGI [32]: > 100 µM
- TGI [33]: > 100 µM
- TGI [34]: > 100 µM
- TGI [35]: > 100 µM
- TGI [36]: > 100 µM
- TGI [37]: > 100 µM
- TGI [38]: > 100 µM
- TGI [39]: > 100 µM
- TGI [40]: > 100 µM
- TGI [41]: > 100 µM
- TGI [42]: > 100 µM
- TGI [43]: > 100 µM
- TGI [44]: > 100 µM
- TGI [45]: > 100 µM
- TGI [46]: > 100 µM
- TGI [47]: > 100 µM
- TGI [48]: > 100 µM
- TGI [49]: > 100 µM
- TGI [50]: > 100 µM
- TGI [51]: > 100 µM
- TGI [52]: > 100 µM
- TGI [53]: > 100 µM
- TGI [54]: > 100 µM
- TGI [55]: > 100 µM

Structure (SMILES): Oc1c2cc(Br)cc1CCc1cc(Br)cc(c1O)CC2
- TGI [1]: 55.8 µM
- TGI [2]: 55.6 µM
- TGI [3]: > 100 µM
- TGI [4]: 73.4 µM
- TGI [5]: > 100 µM
- TGI [6]: > 100 µM
- TGI [7]: 57.2 µM
- TGI [8]: 76 µM
- TGI [9]: > 100 µM
- TGI [56]: 58.6 µM
- TGI [11]: 41.4 µM
- TGI [12]: > 100 µM
- TGI [57]: 39.4 µM
- TGI [13]: 97.5 µM
- TGI [14]: 52.5 µM
- TGI [15]: 33.3 µM
- TGI [16]: 70.4 µM
- TGI [17]: 46 µM
- TGI [18]: 59.5 µM
- TGI [19]: 45.8 µM
- TGI [20]: 32.9 µM
- TGI [21]: 73.8 µM
- TGI [22]: 30.1 µM
- TGI [23]: > 100 µM
- TGI [24]: 27.7 µM
- TGI [25]: 88.3 µM
- TGI [26]: 89.9 µM
- TGI [27]: 52.9 µM
- TGI [28]: 65.8 µM
- TGI [29]: 73.1 µM
- TGI [30]: 37.5 µM
- TGI [31]: > 100 µM
- TGI [32]: > 100 µM
- TGI [33]: 48.8 µM
- TGI [34]: > 100 µM
- TGI [35]: > 100 µM
- TGI [36]: > 100 µM
- TGI [37]: > 100 µM
- TGI [38]: > 100 µM
- TGI [39]: 31.3 µM
- TGI [40]: 65.7 µM
- TGI [41]: 46.2 µM
- TGI [42]: > 100 µM
- TGI [43]: > 100 µM
- TGI [44]: > 100 µM
- TGI [45]: 65 µM
- TGI [46]: 70.5 µM
- TGI [47]: > 100 µM
- TGI [48]: > 100 µM
- TGI [58]: 51.6 µM
- TGI [49]: 35.9 µM
- TGI [50]: 80.7 µM
- TGI [52]: > 100 µM
- TGI [53]: 36.7 µM
- TGI [54]: > 100 µM
- TGI [55]: 66.6 µM
